# Measurements published in paper PMC11475281, “A Novel Liver Cancer-Selective Histone Deacetylase Inhibitor Is Effective against Hepatocellular Carcinoma and Induces Durable Responses with Immunotherapy” (ACS Pharmacology & Translational Science, 2024).
# Legend:
# [1] = system: RIL-175 murine HCC
# Source text: (d) Body weight change of tumor-bearing mice in the four treatment groups.
# Next, we evaluated the in vivo efficacy of STR-V-53 alone or combined with an anti-PD1
# antibody in a p53-null murine HCC model.
# into the subcapsular region of the liver parenchyma in C57Bl/6 mice, and tumor growth was
# monitored by high-frequency ultrasonography. When tumors reached ~5 mm in diameter, mice
# were randomly assigned to one of the four treatment groups (n=12 mice): DMA/ CRH/Water
# (10%/20%/70%) (control), STR-V-53 (25mg/kg daily by i.p. for 3 weeks), anti-PD1 antibody
# (10mg/kg thrice a week for 3 weeks), or combination of STR-V-53 and anti-PD1 antibody. Anti-
# PD1 antibody treatment was administered i.p. for a total of 9 injections. Tumor growth and body
# weight were measured every three days by ultrasound imaging, and tumor size was calculated as
# 0.5×length×width2. Per protocol, moribund status was used as the endpoint, and moribundity
# the starting date, body condition score of more than 2, and tumor size of more than 15 mm in
# diameter. Data were processed using GraphPad Prism 8, and survival analysis was performed
# [2] = Tissue distribution by LC-MS; assay type: in vivo; conditions: both sexes, healthy mice, i.p. 25 mg/kg
# Experimental: To determine if liver tissue accumulation plays a role in the observed in vivo efficacy of STR-V-53, we used LC-MS to evaluate the distribution of STR-V-53 in selected tissues (liver and lungs) and plasma. We analyzed samples from healthy mice exposed to STR-V-53 (i.p. injection) at 25 mg/kg for 8 h. […] The average level of STR-V-53 in circulation in the plasma of healthy mice was ∼ […] 8 h postinjection. In contrast, the level of STR-V-53 in the liver was approximately 4 times its plasma level (Figure 5d). […]
# for another 48 h. Cells were washed with cold 1x PBS solution twice and trypsinized.
# Subsequently, cells were collected using 5 mL 1x PBS buffer and fixed overnight at -20 °C using 70% ethanol. Cells were centrifuged in 1x PBS on day 2 at 4 °C with a spin speed of 3,000g, re-suspended in 1x PBS, and centrifuged again under the same condition. The supernatant was removed, and the cell pellets were re-suspended with 500 µL of 200 ug/mL RNase for 30 min.
# Then cells were treated with another 500 µL of 100 ug/mL PI staining at room temperature for 30 min. The cell cycle was analyzed with BD FACS Aria Illu analyzer, and the data were […]
# The stability of STR-V-53 in murine and human plasmas was determined through a contract agreement with Cyprotex, an Evotec Company (https://www.cyprotex.com)
# Maximum tolerated dose determination
# C57BL/6 mice, 6–8 weeks old, 3 males and 3 females per treatment group, were injected […]
# days in Kolliphor/DMA/water vehicle. We measured body weight and monitored daily food consumption, overall health, and mortality. On the eighth day, mice were sacrificed by cervical dislocation, and organs were harvested and frozen at −80 ◦C.
# Tissue distribution studies
# C57Bl/6 mice, 6–8 weeks old, 3 males and 3 females per treatment group, were injected […]
# the injection, organs were harvested and frozen at −80 °C for subsequent quantification by LC-
# [3] = molecular target: hERG (Homo sapiens, UniProt Q12809); experiment: In vitro hERG inhibition assay; conditions: maximum tested concentration of 100 μM
# Sequence of hERG (Q12809 whole entry, canonical isoform): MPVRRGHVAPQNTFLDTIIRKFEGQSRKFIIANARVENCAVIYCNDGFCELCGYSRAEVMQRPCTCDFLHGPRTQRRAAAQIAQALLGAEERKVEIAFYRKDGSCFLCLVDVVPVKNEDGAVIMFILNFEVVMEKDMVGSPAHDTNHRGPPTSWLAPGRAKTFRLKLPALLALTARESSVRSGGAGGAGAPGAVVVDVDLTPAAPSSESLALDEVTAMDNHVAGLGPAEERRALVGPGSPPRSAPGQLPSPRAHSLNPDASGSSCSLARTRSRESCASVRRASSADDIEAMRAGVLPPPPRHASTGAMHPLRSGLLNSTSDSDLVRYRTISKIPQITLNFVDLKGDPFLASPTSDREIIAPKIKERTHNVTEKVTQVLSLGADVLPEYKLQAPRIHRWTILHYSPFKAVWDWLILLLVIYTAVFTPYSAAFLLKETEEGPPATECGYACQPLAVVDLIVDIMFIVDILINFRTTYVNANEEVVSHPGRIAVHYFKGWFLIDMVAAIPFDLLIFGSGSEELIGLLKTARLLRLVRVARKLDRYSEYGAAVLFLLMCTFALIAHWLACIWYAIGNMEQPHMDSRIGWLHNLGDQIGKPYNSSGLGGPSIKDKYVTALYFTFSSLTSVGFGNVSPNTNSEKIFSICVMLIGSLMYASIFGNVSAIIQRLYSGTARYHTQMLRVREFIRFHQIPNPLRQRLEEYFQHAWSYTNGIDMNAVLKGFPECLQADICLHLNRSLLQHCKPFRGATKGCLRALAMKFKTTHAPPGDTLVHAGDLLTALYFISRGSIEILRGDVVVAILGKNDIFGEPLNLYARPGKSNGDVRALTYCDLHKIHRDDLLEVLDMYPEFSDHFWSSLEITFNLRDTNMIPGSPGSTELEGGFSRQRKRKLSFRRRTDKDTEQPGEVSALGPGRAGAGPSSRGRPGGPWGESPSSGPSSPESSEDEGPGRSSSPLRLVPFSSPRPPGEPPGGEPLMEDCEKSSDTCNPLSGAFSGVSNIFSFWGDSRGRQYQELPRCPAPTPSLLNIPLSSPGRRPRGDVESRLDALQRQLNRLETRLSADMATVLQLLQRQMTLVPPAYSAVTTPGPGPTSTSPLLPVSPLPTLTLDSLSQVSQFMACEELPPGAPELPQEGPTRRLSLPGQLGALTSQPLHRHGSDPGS
# [4] = molecular target: HDAC3/ NCOR2 (Homo sapiens, UniProt O15379); experiment: HDAC isoform inhibition (BPS Bioscience)
# Sequence of HDAC3/ NCOR2 (O15379 whole entry, canonical isoform): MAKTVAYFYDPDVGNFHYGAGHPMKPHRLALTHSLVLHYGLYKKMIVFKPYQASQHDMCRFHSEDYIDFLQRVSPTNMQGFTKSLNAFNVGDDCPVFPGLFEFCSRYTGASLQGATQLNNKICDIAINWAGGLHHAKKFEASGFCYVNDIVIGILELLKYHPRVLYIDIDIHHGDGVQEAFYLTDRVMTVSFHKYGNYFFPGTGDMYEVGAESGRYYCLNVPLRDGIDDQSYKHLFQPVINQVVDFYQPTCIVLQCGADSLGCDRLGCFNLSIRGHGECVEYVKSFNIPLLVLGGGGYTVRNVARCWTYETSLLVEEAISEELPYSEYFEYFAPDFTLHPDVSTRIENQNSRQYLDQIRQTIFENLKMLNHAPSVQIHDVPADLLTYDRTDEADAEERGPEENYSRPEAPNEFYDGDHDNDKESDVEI
# Sequence of HDAC3/ NCOR2 (Q9Y618 395-489 partner limits assumed): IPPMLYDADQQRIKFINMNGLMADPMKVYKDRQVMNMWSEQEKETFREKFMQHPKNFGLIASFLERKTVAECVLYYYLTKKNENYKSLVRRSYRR
# [5] = system: Hep-G2-Red-FLuc intrahepatic tumors; experiment: Orthotopic xenograft model of Hep-G2-Red-FLuc human HCC; assay type: in vivo, mice
# Source text: Next, we evaluated the effects of STR-V-53 on tumor growth in an orthotopic murine model of Hep-G2-Red-FLuc Bioware Brite Cell Line (PerkinElmer) in mice. Mice (6–8 weeks old) were orthotopically implanted through a direct intrahepatic artery injection with Hep-G2-Red-FLuc cells according to published protocols.[38] We used the Red-Fluc expression to confirm tumor implantation by bioluminescent imaging using IVIS. Treatment began after imaging confirmed the establishment of intrahepatic tumors (approximately 7 days). Mice were grouped into cohorts with similar average relative chemiluminescence. Tumor-bearing mice in the treatment groups were injected daily with 200 μL of solution of STR-V-53, SORA, or a combination of STR-V-53 and SORA for 21 days via the i.p. route. No treatment group received vehicle only. After treatment, mice were imaged again, sacrificed, and liver samples were harvested to determine the effects of treatment on tumor size by measurement with calipers. […] Moreover, the combination therapy of SORA (10 mg/kg) and STR-V-53 (25 mg/kg) is more efficacious than either drug as a standalone agent.
# Signaling Technology), respectively, for immunostaining. […]
# (Armenian Hamster monoclonal antibody, clone 2H8, Millipore). Positive cells were counted from five random fields for each HCC tissue section. […]
# monitored by high-frequency ultrasonography. […]
# [6] = system: Hep-G2 cells; experiment: RNA-seq gene set enrichment analysis (Hallmark and GOBP GSEA); assay type: cell-based, human; conditions: 24 h
# Experimental: To obtain transcriptome level evidence that may shed light on the HCC-selectivity and/or the enhanced potency of the combination of STR-V-53 with anti-PD-1 antibody, we performed RNA sequencing (RNA-seq) analysis on STR-V-53-treated Hep-G2 cells, incubated at IC50 and 2× IC50 for 24 h, relative to the untreated (DMSO) control. We first conducted gene set enrichment analysis (GSEA) using hallmark and gene ontology biological process (GOBP) gene sets to analyze the effect of STR-V-53 vs DMSO-treated control on the Hep-G2 transcriptome.[42],[43] […] Negative enrichment of the G2 M checkpoint pathway supports the finding that STR-V-53 induced S phase arrest in Hep-G2 cells (see Figure 4). […]
# and allowed to grow for 48 hours.
# RCF, with this washing step repeated twice. Next, using RNeasy Plus Mini Kit and Qiagen QIAcube […]
# determined using a DeNovix spectrophotometer. Subsequently, quality control of the RNA samples was […]
# (base call error rate of […]).
# FASTQ files of samples were analyzed through the RNA-seq pipeline provided by the Gryder lab1. Reads were aligned to hg38 using STAR version 2.5.3a, and gene expression was calculated as Transcripts per Million mapped reads (TPM) using RSEM version 1.3.3 and filtered for coding genes. Differentially expressed genes lists were generated for each sample by calculating log2 fold change of the averaged sample TPM versus the averaged DMSO-treated control cells TPM and filtering for genes with |log2 fold change| > -1 and false discovery rate < 0.25. Hallmark2 and gene ontology biological processes (GOBP)3 gene set enrichment analysis (GSEA) was performed on the differentially expressed gene lists using the GSEA software (parameters: Run GSEAPreranked, Collapse/Remap- No_Collapse)4. GSEA results were interpreted and visualized using scripts provided by the Gryder lab1.Volcano plots were generated using DESeq2v1.41.1 and visualized with the ggplot2 R packages5,6. […]
compound,measurement,setting,value
O=C(CCCCCCn1cc(-c2ccc(O[C@H]3O[C@H](CO)[C@@H](O)[C@H](O)[C@H]3O)cc2)nn1)NO [STR-V-53],Body weight change of tumor-bearing mice (weight loss),"[1]; RIL-175 model, 12 mice per group",4/12
same,Tumor growth,"[1]; RIL-175 model, n = 12",minor effect on tumor growth
same,Overall survival (Kaplan–Meier),"[1]; RIL-175 model, n = 12, vs IgG control",no impact on survival
same,Overt toxicity during the treatment period,[1]; RIL-175 tumor-bearing mice,no significant overt toxicity
same,Kp at 8 h,"[2]; C57Bl/6, mouse, liver (relative to plasma), ip, 8 h, read-out: Level in the liver relative to plasma level",~4
same,concentration at 8 h,"[2]; C57Bl/6, mouse, plasma, ip, 8 h postinjection, read-out: Average level in plasma",~0.01 ng/mL
same,Level in the lungs,[2]; 8 h,below the detection limit
same,hERG inhibition,[3],no inhibition
same,IC50,[4],21 nM
same,Tumor growth inhibition (TGI),[5]; 25 mg/kg daily i.p. for 21 days,60%
same,Tumor growth inhibition (TGI),[5]; 50 mg/kg daily i.p. for 21 days,68%
same,"NES, G2/M checkpoint (Hallmark GSEA)",[6]; 2× IC50 (20 μM),−2.2
same,"NES, MYC targets v1 (Hallmark GSEA)",[6]; 2× IC50 (20 μM),−2.3
same,"NES, MYC targets v2 (Hallmark GSEA)",[6]; 2× IC50 (20 μM),−2.6
same,"NES, PI3K/Akt/mTOR signaling (Hallmark GSEA)",[6]; 2× IC50 (20 μM),−1.7
same,"NES, antimicrobial humoral immune response mediated by an antimicrobial peptide (GOBP GSEA)",[6]; 2× IC50 (20 μM),1.9
same,"NES, cytokine-mediated signaling pathway (GOBP GSEA)",[6]; 2× IC50 (20 μM),−1.4
same,"NES, glucose-regulated transcription genes (GOBP GSEA)",[6]; 2× IC50 (20 μM),−1.8
same,"NES, humoral immune response (GOBP GSEA)",[6]; 2× IC50 (20 μM),1.7
same,"NES, innate immune response in the mucosa (GOBP GSEA)",[6]; 2× IC50 (20 μM),2.3
same,"NES, p53 pathway (Hallmark GSEA)",[6]; 2× IC50 (20 μM),1.6
same,"NES, positive regulation of glucose import (GOBP GSEA)",[6]; 2× IC50 (20 μM),−1.6
same,"NES, G2/M checkpoint (Hallmark GSEA)",[6]; IC50 (10 μM),−2.9
same,"NES, MYC targets v1 (Hallmark GSEA)",[6]; IC50 (10 μM),−2.6
same,"NES, MYC targets v2 (Hallmark GSEA)",[6]; IC50 (10 μM),−2.3
same,"NES, antimicrobial humoral immune response mediated by an antimicrobial peptide (GOBP GSEA)",[6]; IC50 (10 μM),1.9
same,"NES, glucose-regulated transcription genes (GOBP GSEA)",[6]; IC50 (10 μM),−1.8
same,"NES, humoral immune response (GOBP GSEA)",[6]; IC50 (10 μM),1.9
same,"NES, innate immune response in the mucosa (GOBP GSEA)",[6]; IC50 (10 μM),2.1
